Reference: ChEMBL document CHEMBL1144976, “Biological activities of alpha-mangostin derivatives against acidic sphingomyelinase” (Bioorg Med Chem Lett, 2003)

Experiments:
[1] = target: T1, Sphingomyelin phosphodiesterase 2 (Homo sapiens, UniProt O60906); assay: Inhibitory activity against NSMase (neutral sphingomyelinase)
T1 sequence (O60906 whole entry): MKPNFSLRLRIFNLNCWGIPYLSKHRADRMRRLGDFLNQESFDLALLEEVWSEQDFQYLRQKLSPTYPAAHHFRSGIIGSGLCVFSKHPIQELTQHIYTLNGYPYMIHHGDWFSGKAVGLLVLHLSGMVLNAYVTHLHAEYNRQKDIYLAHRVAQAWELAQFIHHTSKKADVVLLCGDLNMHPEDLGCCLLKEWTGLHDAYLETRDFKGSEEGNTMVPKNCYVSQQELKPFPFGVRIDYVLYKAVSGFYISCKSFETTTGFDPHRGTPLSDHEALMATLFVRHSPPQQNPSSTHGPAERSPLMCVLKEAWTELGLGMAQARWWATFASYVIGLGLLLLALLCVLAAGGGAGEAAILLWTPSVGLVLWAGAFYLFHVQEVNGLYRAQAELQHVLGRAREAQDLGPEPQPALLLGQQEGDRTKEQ

[2] = target: T2, Sphingomyelin phosphodiesterase (Homo sapiens, UniProt P17405); assay: Inhibitory activity against Acid sphingomyelinase
T2 sequence (P17405 whole entry): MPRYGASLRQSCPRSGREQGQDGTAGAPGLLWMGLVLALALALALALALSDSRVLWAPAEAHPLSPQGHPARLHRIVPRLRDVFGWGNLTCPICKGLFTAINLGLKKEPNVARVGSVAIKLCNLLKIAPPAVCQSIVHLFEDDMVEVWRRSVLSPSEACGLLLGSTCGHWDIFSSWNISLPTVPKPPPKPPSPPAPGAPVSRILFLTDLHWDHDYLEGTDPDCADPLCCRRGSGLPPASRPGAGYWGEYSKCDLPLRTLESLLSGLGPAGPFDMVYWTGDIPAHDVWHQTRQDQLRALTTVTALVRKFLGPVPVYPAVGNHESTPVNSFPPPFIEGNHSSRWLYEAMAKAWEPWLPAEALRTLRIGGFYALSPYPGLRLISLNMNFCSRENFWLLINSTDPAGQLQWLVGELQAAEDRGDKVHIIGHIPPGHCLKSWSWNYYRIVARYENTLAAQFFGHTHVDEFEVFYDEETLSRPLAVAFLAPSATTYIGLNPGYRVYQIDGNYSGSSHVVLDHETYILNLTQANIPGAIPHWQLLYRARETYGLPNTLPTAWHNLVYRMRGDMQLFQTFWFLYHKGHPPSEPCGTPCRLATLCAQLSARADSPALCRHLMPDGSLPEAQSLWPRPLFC

| IC50 [1] | IC50 [2] | Structure (SMILES) |
| --- | --- | --- |
| > 292 µM | 101 µM | COc1cc2c(=O)c3c(O)c(CC=C(C)C)c(O)cc3oc2cc1O |
| 201 µM | 66.6 µM | COc1cc(C(=O)c2c(O)cc(O)c(CC=C(C)C)c2O)c(O)cc1O |
| 113 µM | 38.5 µM | COc1c(O)cc(O)c(C(=O)c2c(O)cc(O)c(CC=C(C)C)c2O)c1CC=C(C)C |
| 26 µM | 15.3 µM | COc1c(O)cc2oc3cc(O)cc(O)c3c(=O)c2c1CC=C(C)C |
| 28.3 µM | 14.7 µM | COc1c(O)cc(O)c(C(=O)c2c(O)cc(O)cc2O)c1CC=C(C)C |
| 113 µM | 12.5 µM | COc1c(O)cc2oc3cc(O)c(CC=C(C)C)c(O)c3c(=O)c2c1CC=C(C)C [MANGOSTIN] |
